The results in this text go back to patent US20250302798A1, “STING INHIBITORS AND USE THEREOF” (CARMEL HAIFA UNIVERSITY ECONOMIC CORPORATION LTD., priority 2022, published 2025).

The target of test [1] is T1, STING (Mus musculus, UniProt Q3TBT3).
T1 sequence (Q3TBT3 1-378): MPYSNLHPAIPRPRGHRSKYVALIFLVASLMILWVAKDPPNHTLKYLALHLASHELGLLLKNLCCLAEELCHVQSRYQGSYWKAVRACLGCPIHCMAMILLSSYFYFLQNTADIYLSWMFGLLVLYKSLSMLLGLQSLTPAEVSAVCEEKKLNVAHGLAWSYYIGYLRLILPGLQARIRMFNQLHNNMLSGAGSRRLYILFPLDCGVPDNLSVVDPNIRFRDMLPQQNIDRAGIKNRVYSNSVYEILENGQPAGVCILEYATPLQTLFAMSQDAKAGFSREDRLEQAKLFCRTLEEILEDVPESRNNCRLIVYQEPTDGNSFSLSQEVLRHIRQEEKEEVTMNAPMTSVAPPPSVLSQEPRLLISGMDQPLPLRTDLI
Description: Cytokine secretion (ELISA) from DMXAA-activated resolution phase macrophages (zymosan A peritonitis). Type of test: cell-based, mice. Also noted: Mice were injected with zymosan A (1 mg/mouse), and peritoneal cells thereof were recovered after 66 hrs; endogenous in cells; host or cells: F4/80+ peritoneal exudate macrophages from mice with zymosan A peritonitis. The settings on record: for TNFα secretion / IL-10 secretion: individual compounds 50-5,000 nM + DMXAA 5-10 μM; for Mode of action in resolution phase macrophages: summary heading; for TNFα induced by DMXAA: at 5000 nM. On the procedure:
Mice were injected with zymosan A (1 mg/mouse), and peritoneal cells thereof were recovered after 66 hrs. Exudate macrophages were isolated and incubated (1×10^6 cells in 0.5 mL of culture media) overnight with a premade mixture of the individual compounds in clusters 1 and 9 (5,000 nM; 5A and 5C), or the individual compounds (500-5,000 nM), or vehicle and DMXAA (5-10 μM). Next, culture supernatants were collected and TNFα (5A-5B) or IL-10 (5C-5D) levels were determined by standard ELISA (Biolegend).
(§1) Splenocytes were isolated from the spleens of unchallenged C57BL/6 WT or STING-KO mice by meshing against a grid. Peritoneal macrophages were isolated from mice undergoing peritonitis for 66 hr by washing with 5 ml PBS. The cellular exudate was stained with phycoerythrin (PE)-conjugated anti-F4/80 antibodies (bioLegend, CA, USA) and macrophages were isolated using magnetic beads (STEMCELL Technologies Inc, Vancouver, Canada). Isolated splenocytes or macrophages (0.5-1×10^6 cells per well) were incubated with 50-5,000 nM of individual substances or pooled clusters thereof. Then, the cells were treated with vehicle or 5-10 μM DMXAA (Cayman Chemical, MI, USA) to activate STING. After 24 hr, culture supernatants were collected and evaluated for levels of: TNFα, IFN-β and/or IL-10 using, standard ELISA (BioLegend, CA, USA).
To use a more physiological setting, macrophages were isolated from zymosan A-induced peritonitis and treated with the compounds alone (5,000 nM) or compounds (50-5,000 nM) with DMXAA, or DMXAA alone.

Test [2] concerns the target T1, STING. Description: Cytokine secretion (ELISA) from DMXAA-activated splenocytes. Type of test: cell-based, C57BL/6 mice. The arrangement: Splenocytes were recovered from C57BL/6 WT female mice; endogenous in cells; host or cells: primary splenocytes of C57BL/6 mice. The settings on record: for Mode of action on STING (overall): summary over various cell types, DMXAA stimulation; for STING inhibition (ranking): at 5,000 nM, resting splenocytes. On the procedure: FIGS. 1A-1B include bar graphs showing that Cluster 1 and 9 inhibit tumor necrosis factor alpha (TNFα) while only cluster 1 promotes IL-10 secretion from resting splenocytes activated by the selective STING agonist DMXAA. Splenocytes were recovered from C57BL/6 WT or STING^−/− female mice and were incubated (1×10^6 cells in 0.5 mL of culture media) overnight with a premade mixture of the individual compounds in each cluster (5-500 nM) or vehicle, and DMXAA (10 μM). Next, culture supernatants were collected and TNFα(1A) or IL-10 (1B) levels were determined by standard enzyme-linked immunosorbent assay ELISA (Biolegend).
(§2) FIGS. 2A-2D include graphs showing that compounds 5.9 and 7.9 inhibit TNFα and IL-10 secretion from DMXAA-activated splenocytes. Splenocytes were recovered from C57BL/6 WT female mice and incubated (1×10^6 cells in 0.5 mL of culture media) overnight with the individual compounds from cluster 9 (50-5,000 nM) or vehicle and DMXAA (5-10 μM; 2A-2B) or at 5,000 nM without DMXAA (2C-2D). Next, culture supernatants were collected and TNFα (2A, and 2C) or IL-10 (2B, and 2D) levels were determined by standard ELISA. In 2A-2B, black horizontal line indicates secretion level from vehicle-treated cells.
FIGS. 3A-3H include graphs and an image showing that compounds 2.1, 4.1, and 6.1 inhibit TNFα but promote IL-10 and IFN-beta secretion from DMXAA-activated splenocytes. Splenocytes were recovered from C57BL/6 WT female mice and incubated (1×10^6 cells in 0.5 mL of culture media) overnight with the individual compounds from cluster 1 (50-5,000 nM) or vehicle and DMXAA (10 μM; 3A, 3C, and 3E) or at 5,000 nM without DMXAA (3B, 3D, and 3F). Next, culture supernatants were collected and TNFα (3A-3B), IL-10 (3C-3D), or IFN-beta (3E-3F) levels were determined by standard ELISA. In 3A, 3C, and 3E, black horizontal line indicates secretion level from vehicle-treated cells. (3G-3H) Biased STING agonists (BiSTs) enhance DMXAA-induced STING signaling. Splenocytes were treated with 25 μg/ml DMXAA and 50 nM of compound 2.1 for 1-4 hr (3G). Then, the cells were analyzed by immunoblotting for phosphorylated STING, TBK-1, IRF3, and NF-kB, or their unphosphorylated controls, or actin as a loading control. Densitometry analysis for phosphorylated STING (p-STING) and STING proteins (3H) is also shown. Results are representative (3G) or mean±SEM (3H) from 3 repeats. One-way ANOVA, and Tukey HSD test *P<0.05.
as §1
To test which cluster(s) included compounds that modulate STING-mediated cytokine production, wild-type (WT) or STING knockout (−/−) splenocytes were incubated with the selective murine STING agonist DMXAA alone or with 5-500 nM of the pooled individual compounds in each cluster as indicated.
Next, the individual compounds in clusters 1 and 9 were tested at 50-5,000 nM. The first experiment was performed in resting splenocytes as detailed above.
On the technique in general: ELISA stands for enzyme-linked immunosorbent assay.

Test [3] deals with T1, STING. The experiment in a line: Cytokine secretion (ELISA) from splenocytes without DMXAA. Type of test: cell-based, C57BL/6 mice. Also noted: Splenocytes were recovered from C57BL/6 WT female mice; endogenous in cells; host or cells: primary splenocytes of C57BL/6 mice. The settings on record: 5,000 nM. As for the experimental part: as §2
FIGS. 3A-3H include graphs and an image showing that compounds 2.1, 4.1, and 6.1 inhibit TNFα but promote IL-10 and IFN-beta secretion from DMXAA-activated splenocytes. […] Next, culture supernatants were collected and TNFα (3A-3B), IL-10 (3C-3D), or IFN-beta (3E-3F) levels were determined by standard ELISA. […] Then, the cells were analyzed by immunoblotting for phosphorylated STING, TBK-1, IRF3, and NF-kB, or their unphosphorylated controls, or actin as a loading control. […]
Splenocytes were isolated from the spleens of unchallenged C57BL/6 WT or STING-KO mice by meshing against a grid. […] After 24 hr, culture supernatants were collected and evaluated for levels of: TNFα, IFN-β and/or IL-10 using, standard ELISA (BioLegend, CA, USA). […]

Test [4] concerns LPS-activated splenocytes. Description: Cytokine secretion (ELISA) from LPS-activated splenocytes. The settings on record: for IFN-beta secretion / IL-10 secretion / TNFα secretion / LPS-induced cytokine secretion: 5,000 nM + LPS 1 μg/ml; for IFN-beta secretion / IL-10 secretion / TNFα secretion: overnight. It counts as cell-based, C57BL/6 mice. As for the experimental part: FIGS. 4A-4C include vertical bar graphs showing that compounds 5.9 and 7.9 inhibit TNFα but promote IL-10 and IFN-beta secretion from lipopolysaccharides (LPS)-activated splenocytes. Splenocytes were recovered from C57BL/6 WT female mice and incubated (1×10^6 cells in 0.5 mL of culture media) overnight with the individual compounds from cluster 9 (5,000 nM) or vehicle and LPS (1 μg/ml). Next, culture supernatants were collected and TNFα (4A), IL-10 (4B), or IFN-beta (4C) levels were determined by standard ELISA.
STING was previously shown to be essential for LPS-induced IRF3 activation and IFN-β production. Therefore, further examination of whether the putative STING antagonists affect LPS-induced cytokine production was carried out.

[5] abbreviates: individual compounds 50-5,000 nM + DMXAA 5-10 μM, overnight.

“Also recorded” adds a separate entry of the source.

On to `COCC(=O)N(C)C(Cc1ccc(F)cc1)C1CCN(C(=O)c2ccc(-c3ccccc3)cc2)CC1` (stereo not shown) [Compound 3.1, N-[1-[1-(4-biphenylylcarbonyl)-4-piperidinyl]-2-(4-fluorophenyl)ethyl]-2-methoxy-N-methylacetamide], for which the TNFα secretion entry at STING [1] is on record as “enhanced TNFα only”.
Regarding `c1ccc(-n2cccc2CN(Cc2cccnc2)Cc2ccc3c(c2)OCO3)nc1` [Compound 4.1, (1,3-benzodioxol-5-ylmethyl)(pyridin-3-ylmethyl)[(1-pyridin-2-yl-1H-pyrrol-2-yl)methyl]amine], at STING [2] (individual compounds 50-5,000 nM + DMXAA 10 μM, overnight), the IFN-beta secretion entry is “promote”. The IL-10 secretion entry at STING [2] (setting [5]) is on record as “induced IL-10 at all concentrations; also recorded: promote”; on STING [2] (individual compounds at 5,000 nM + DMXAA), “induces”; at STING [3] (without DMXAA), “only compound that induced IL-10; also recorded: induces”; at STING [1], “selective inducer”. Besides, the TNFα secretion entry at STING [2] (setting [5]) is “inhibit”. For the same compound, at STING [2], the “Mode of action on STING (overall)” value is reported as “biased agonists; also recorded: most efficient biased agonist”. Further, the “IL-10 induced by DMXAA” value at STING [1] (at 500 nM) is reported as “enhanced”; on STING [1] (at 5,000 nM) it was “not”. For the same compound, on STING [1], the “Mode of action in resolution phase macrophages” value is “Biased Antagonist for TNFα”.
`COc1ccccc1CCN1CCCC(CN(C)C(=O)Cc2cn(C)c3ccccc23)C1` (stereo not shown) [Compound 4.9]: the “STING inhibition (ranking)” value on STING [2] is given as “Best STING Inhibitors”. Besides, the TNFα secretion result on STING [2] (setting [5]) was “doing so at lower concentrations”.
With `Cc1ccc2c(-c3cc4c(n(CC5CC5)c3=O)CCN(C(=O)C3=NN(C)C(=O)CC3)C4)cccc2n1` [Compound 5.9, 1-(cyclopropylmethyl)-6-[(1-methyl-6-oxo-1,4,5,6-tetrahydro-3-pyridazinyl)carbonyl]-3-(2-methyl-5-quinolinyl)-5,6,7,8-tetrahydro-1,6-naphthyridin-2(1H)-one], in test [4], the IFN-beta secretion result is given as “enhances; also recorded: significant upregulation; also recorded: promote”; the IL-10 secretion result was “enhances; also recorded: significant upregulation; also recorded: promote”; the TNFα secretion entry is “not and reducing and inhibiting and inhibit”. Further, in test [4] (summary statement), the “Mode of action in LPS-stimulated splenocytes” value is “biased agonist”. Besides, at STING [2], the “STING inhibition (ranking)” value is given as “Best STING Inhibitors” and the “Mode of action on STING (overall)” value is on record as “very efficient STING inhibitors”. On STING [2] (setting [5]), the IL-10 secretion entry is “inhibit” and the TNFα secretion entry was “doing so at lower concentrations; also recorded: best inhibitor; also recorded: inhibit”. Besides, on STING [3] (absence of DMXAA stimulation), the TNFα secretion result was “inhibited”. On STING [1] (at 5,000 nM), the “IL-10 induced by DMXAA” value is recorded as “enhanced”. On STING [1], the “TNFα induced by DMXAA” value was “enhanced”.
As for `Cc1ccc(C(=O)Nc2cnn(-c3ccc(C(=O)N4CCC(c5ccc(F)cc5)C4)cc3)c2)c(C)c1` (stereo not shown) [Compound 6.1, N-[1-(4-{[3-(4-fluorophenyl)-1-pyrrolidinyl]carbonyl}phenyl)-1H-pyrazol-4-yl]-2,4-dimethylbenzamide], on STING [2], the “STING inhibition (ranking)” value is given as “Best STING Inhibitors” and the “Mode of action on STING (overall)” value is recorded as “biased agonists”. In addition, the TNFα secretion result on STING [2] (setting [5]) is listed as “doing so at lower concentrations; also recorded: inhibit”. Further, the “IL-10 induced by DMXAA” value at STING [1] (at 5,000 nM) is “enhanced”. Besides, the “TNFα induced by DMXAA” value on STING [1] is “enhanced”.
As to `CCOC(=O)N1CCC(NCc2cc3ccc(Cl)cc3n(CCOc3ccccc3)c2=O)CC1` [Compound 6.9, ethyl 4-({[7-chloro-2-oxo-1-(2-phenoxyethyl)-1,2-dihydro-3-quinolinyl]methyl}amino)-1-piperidinecarboxylate], in test [4], the LPS-induced cytokine secretion entry is given as “much milder effects”.
For `O=C(CCc1c[nH]c2ccccc12)N1CCOc2ccc(CN3CCN(c4ccccn4)CC3)cc2C1` [Compound 7.9, 4-[3-(1H-indol-3-yl)propanoyl]-7-{[4-(2-pyridinyl)-1-piperazinyl]methyl}-2,3,4,5-tetrahydro-1,4-benzoxazepine], in test [4], the LPS-induced cytokine secretion entry is listed as “much milder effects”, the IFN-beta secretion entry is “promote”, the IL-10 secretion result is listed as “promote” and the TNFα secretion entry is “inhibit”. At STING [2] (setting [5]), the IL-10 secretion entry is on record as “inhibit” and the TNFα secretion entry is “inhibit”. Further, the “Mode of action on STING (overall)” value on STING [2] was “very efficient STING inhibitors”. Besides, on STING [1], the IL-10 secretion entry is listed as “best inhibitor; also recorded: inhibits”, the TNFα secretion entry was “best inhibitor; also recorded: inhibits” and the “Mode of action in resolution phase macrophages” value is “Very Efficient STING Inhibitor”.
